Experimental data: article PMC9299836 (eLife, 2022)
Values joined by “and” are separate entries in the source; they are usually repeats but may differ in a detail not shown here. Equal values may be shown once.

Tests used:
mGluR2 [1] = biological target: mGluR2 (Mus musculus, UniProt Q14BI2, A548F); experiment: Live-cell FRET, azi-CRD (cysteine-rich domain) sensor in HEK293T cells; conditions: for Mean normalized FRET response, azi-CRD PAM DRC: glutamate + 10μM BINA, maximal response normalized to 1mM glutamate
mGluR2 [2] = biological target: mGluR2 (Mus musculus, UniProt Q14BI2); experiment: Live-cell FRET, SNAP-m2 (VFT domain) inter-subunit sensor in HEK293T cells; conditions: for SNAP-m2 FRET response (PAM DRC): individual cells, normalized to 1mM glutamate;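 for all read-outs here: apparent FRET efficiency from whole-membrane ROIs of single cells, corrected for donor bleed-through and background, ΔFRET as treatment minus pretreatment signal, recorded at room temperature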
[3] = 10μM BINA, ([1 mM glutamate + modulator] - [1 mM glutamate]) × 100
[4] = Glutamate + 10μM BINA, log[Glutamate] (M) -5.82391
[5] = Glutamate + 10μM BINA, log[Glutamate] (M) -6.52288
[6] = Glutamate + 10μM BINA, log[Glutamate] (M) -7
[7] = Glutamate + 10μM BINA, log[Glutamate] (M) -7.30103
[8] = Glutamate + 10μM BINA, log[Glutamate] (M) -7.69897

mGluR2 (Mus musculus, UniProt Q14BI2), sequence (Q14BI2 19-872): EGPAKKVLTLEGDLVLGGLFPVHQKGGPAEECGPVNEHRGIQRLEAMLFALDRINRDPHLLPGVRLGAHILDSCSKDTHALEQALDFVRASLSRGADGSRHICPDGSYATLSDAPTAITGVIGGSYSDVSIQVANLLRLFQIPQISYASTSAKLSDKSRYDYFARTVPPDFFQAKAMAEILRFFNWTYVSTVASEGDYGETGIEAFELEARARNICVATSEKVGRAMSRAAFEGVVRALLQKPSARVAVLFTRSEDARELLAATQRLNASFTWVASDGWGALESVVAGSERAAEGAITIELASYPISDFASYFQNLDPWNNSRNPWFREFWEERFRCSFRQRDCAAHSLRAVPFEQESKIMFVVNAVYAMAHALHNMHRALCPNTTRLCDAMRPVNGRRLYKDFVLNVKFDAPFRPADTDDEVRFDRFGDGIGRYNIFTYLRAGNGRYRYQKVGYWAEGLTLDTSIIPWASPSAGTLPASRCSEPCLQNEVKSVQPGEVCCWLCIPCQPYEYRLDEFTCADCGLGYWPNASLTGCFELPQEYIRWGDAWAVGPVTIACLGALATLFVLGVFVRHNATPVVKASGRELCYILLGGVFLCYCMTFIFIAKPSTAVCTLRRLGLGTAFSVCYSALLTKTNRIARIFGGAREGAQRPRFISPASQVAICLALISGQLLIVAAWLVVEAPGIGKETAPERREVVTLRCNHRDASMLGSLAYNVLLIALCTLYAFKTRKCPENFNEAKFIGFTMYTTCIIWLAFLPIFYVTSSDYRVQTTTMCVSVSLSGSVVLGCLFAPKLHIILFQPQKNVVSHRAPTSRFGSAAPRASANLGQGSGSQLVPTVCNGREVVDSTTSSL
mGluR2 (Mus musculus, UniProt Q14BI2, A548F), sequence (Q14BI2 19-872 A548F): as the sequence (Q14BI2 19-872) above, with A530F counted along it

Cc1c(OCc2cccc(-c3ccc(C(=O)O)cc3)c2)cc2c(c1C)C(=O)C(C1CCCC1)C2 (stereo not shown) [BINA]
azi-CRD - ΔEfficacy, Mean ΔEfficacy (mGluR2 [1]; [3]): 12.0943
azi-CRD - ΔEfficacy, individual cell responses (mGluR2 [1]; 10μM BINA, single cells): 23.3716 and 17.6357 and 26.8405 and 19.7115 and 27.7937 and 0.5839 and -1.206 and 0.442 and -6.324
Hill slope of glutamate titration (mGluR2 [1]; azi-CRD sensor, + 10 μM modulator): 1.16
Live-cell FRET max response normalized to 1mM glutamate (mGluR2 [1]; azi-CRD sensor, Glutamate + 10μM BINA, individual values (N=9)): 1.278 and 1.006 and 0.9879 and 1.004 and 0.9368 and 1.234 and 1.176 and 1.2684 and 1.197
Mean max response (normalized max ΔFRET) (mGluR2 [1]; azi-CRD, 1 mM glutamate + 10 μM modulator, normalized to 1 mM glutamate): 1.12
Mean ΔPotency (mGluR2 [1]; azi-CRD, 10μM modulator, (([modulator + glutamate]EC50 – [glutamate] EC50)/[glutamate] EC50) × 100): -86.2846
ΔPotency, individual cell (mGluR2 [1]; azi-CRD, 10μM modulator, calculated from individual cell responses): -93.2892 and -92.5628 and -93.8686 and -95.6587 and -92.9779 and -84.725 and -80.1033 and -74.2586 and -75.6122 and -79.7897
Mean normalized FRET response, azi-CRD PAM DRC (mGluR2 [1]; log[Glutamate] (M) -3): 1.121
Mean normalized FRET response, azi-CRD PAM DRC (mGluR2 [1]; log[Glutamate] (M) -4.1549): 1.112
Mean normalized FRET response, azi-CRD PAM DRC (mGluR2 [1]; log[Glutamate] (M) -4.52288): 1.067
Mean normalized FRET response, azi-CRD PAM DRC (mGluR2 [1]; log[Glutamate] (M) -5): 1.001
Mean normalized FRET response, azi-CRD PAM DRC (mGluR2 [1]; log[Glutamate] (M) -5.39794): 0.8946
Mean normalized FRET response, azi-CRD PAM DRC (mGluR2 [1]; log[Glutamate] (M) -5.82391): 0.6333
Mean normalized FRET response, azi-CRD PAM DRC (mGluR2 [1]; log[Glutamate] (M) -6.52288): 0.1759
Mean normalized FRET response, azi-CRD PAM DRC (mGluR2 [1]; log[Glutamate] (M) -7): 0.038
Mean normalized FRET response, azi-CRD PAM DRC (mGluR2 [1]; log[Glutamate] (M) -7.30103): 0
Mean normalized FRET response, azi-CRD PAM DRC (mGluR2 [1]; log[Glutamate] (M) -7.69897): 0
Mean normalized FRET response, azi-CRD PAM DRC (mGluR2 [1]; log[Glutamate] (M) -8): 0
SNAP-m2 - ΔEfficacy, Mean ΔEfficacy (mGluR2 [2]; [3]): 2.381
SNAP-m2 - ΔEfficacy, individual cell responses (mGluR2 [2]; 10μM BINA, single cells): 2.679 and 0.7326 and 0.3738 and 4.211 and 3.017 and 2.268 and 3.39
SNAP-m2 FRET response (PAM DRC), Mean (mGluR2 [2]; Glutamate + 10μM BINA, log[Glutamate] (M) -3): -1.024
SNAP-m2 FRET response (PAM DRC), Mean (mGluR2 [2]; Glutamate + 10μM BINA, log[Glutamate] (M) -4.1549): -1.044
SNAP-m2 FRET response (PAM DRC), Mean (mGluR2 [2]; Glutamate + 10μM BINA, log[Glutamate] (M) -4.52288): -1.065
SNAP-m2 FRET response (PAM DRC), Mean (mGluR2 [2]; Glutamate + 10μM BINA, log[Glutamate] (M) -5): -1.035
SNAP-m2 FRET response (PAM DRC), Mean (mGluR2 [2]; Glutamate + 10μM BINA, log[Glutamate] (M) -5.39794): -0.9191
SNAP-m2 FRET response (PAM DRC) (mGluR2 [2]; [4]): -0.3851 and -0.8695 and -0.7127 and -0.7584 and -0.7474 and -0.9245 and -0.822 and -0.6977 and -0.989 and -0.9518 and -0.9499 and -0.2243 and -0.901 and -0.9622 and -1.01 and -0.9642 and -0.1942 and -0.3249 and -0.4164 and -0.506
SNAP-m2 FRET response (PAM DRC), Mean (mGluR2 [2]; [4]): -0.7275
SNAP-m2 FRET response (PAM DRC) (mGluR2 [2]; [5]): -0.06795 and -0.4149 and -0.3185 and -0.3338 and -0.3365 and -0.4306 and -0.3984 and -0.3309 and -0.4302 and -0.4616 and -0.4969 and -0.03041 and -0.4566 and -0.4789 and -0.4597 and -0.5155 and -0.05296 and -0.06597 and -0.09807 and -0.1208 and -0.3936 and -0.2233 and -0.4059
SNAP-m2 FRET response (PAM DRC), Mean (mGluR2 [2]; [5]): -0.3184
SNAP-m2 FRET response (PAM DRC) (mGluR2 [2]; [6]): -0.0453 and -0.1707 and -0.1814 and -0.1137 and 0 (10×) and -0.1874 and -0.2505 and -0.1579 and -0.1949 and -0.1703
SNAP-m2 FRET response (PAM DRC), Mean (mGluR2 [2]; [6]): -0.07748
SNAP-m2 FRET response (PAM DRC) (mGluR2 [2]; [7]): 0 (16×) and -0.1321 and -0.1145 and -0.02457
SNAP-m2 FRET response (PAM DRC), Mean (mGluR2 [2]; [7]): -0.01427
SNAP-m2 FRET response (PAM DRC) (mGluR2 [2]; [8]): 0
SNAP-m2 FRET response (PAM DRC), Mean (mGluR2 [2]; [8]): 0
Mean max response (normalized max ΔFRET) (mGluR2 [2]; SNAP-m2, 1 mM glutamate + 10 μM modulator, normalized to 1 mM glutamate): 1.02
Mean ΔPotency (mGluR2 [2]; SNAP-m2, 10μM modulator, (([modulator + glutamate]EC50 – [glutamate] EC50)/[glutamate] EC50) × 100): -89.602
Mean ΔEfficacy (mGluR2 [2]; SNAP-m2, 10μM modulator, ([1 mM glutamate + modulator] - [1 mM glutamate]) × 100): 2.381
Hill slope of glutamate titration (mGluR2 [2]; SNAP-m2 sensor, + 10 μM modulator): –1.24
Live-cell FRET max response normalized to 1mM glutamate (mGluR2 [2]; SNAP-m2 sensor, Glutamate + 10μM BINA, individual values (N=7)): 1.03 and 1.023 and 1.0339 and 1.027 and 1.007 and 1.004 and 1.042
